Measured values from ChEMBL document CHEMBL1139538, “ERbeta ligands. 3. Exploiting two binding orientations of the 2-phenylnaphthalene scaffold to achieve ERbeta selectivity” (J Med Chem, 2005).

How the values were obtained:
Estrogen receptor beta = Estrogen receptor beta (Homo sapiens, UniProt Q92731)
Estrogen receptor = target: T1, Estrogen receptor (Homo sapiens, UniProt P03372)
T1 sequence (P03372 whole entry): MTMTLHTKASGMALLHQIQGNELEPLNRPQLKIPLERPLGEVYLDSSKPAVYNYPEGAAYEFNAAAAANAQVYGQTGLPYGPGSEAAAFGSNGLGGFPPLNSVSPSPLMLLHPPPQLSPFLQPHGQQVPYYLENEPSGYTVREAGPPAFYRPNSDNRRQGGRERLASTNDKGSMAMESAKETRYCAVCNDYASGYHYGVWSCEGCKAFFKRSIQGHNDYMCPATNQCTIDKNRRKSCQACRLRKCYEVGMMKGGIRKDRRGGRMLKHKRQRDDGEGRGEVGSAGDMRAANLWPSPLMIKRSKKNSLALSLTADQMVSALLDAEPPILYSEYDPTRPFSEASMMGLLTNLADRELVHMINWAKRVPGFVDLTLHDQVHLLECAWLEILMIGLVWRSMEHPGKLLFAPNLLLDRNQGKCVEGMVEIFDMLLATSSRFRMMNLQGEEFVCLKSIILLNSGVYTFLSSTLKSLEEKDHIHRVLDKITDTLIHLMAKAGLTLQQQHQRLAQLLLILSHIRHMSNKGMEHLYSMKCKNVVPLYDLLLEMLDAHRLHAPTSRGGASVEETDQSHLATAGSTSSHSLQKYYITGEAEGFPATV
Description: Inhibition of [3H]17-beta-estradiol binding to human estrogen receptor alpha expressed in Escherichia coli

Rattus norvegicus [1] = assay: Effect of oral administration of 1 mg/kg compound on colon histology (haemoglobin) in HLA-B27 transgenic rats; assay type: functional
Rattus norvegicus [2] = assay: Effect of oral administration of 10 mg/kg compound on colon histology (haemoglobin) in HLA-B27 transgenic rats; assay type: functional
[3] = target: T2, Estrogen receptor (Rattus norvegicus) (UniProt P06211+Q62986)
Description: Effect on uterine weight of immature rats at 2 mg/rat/day dose after 3 days

[4] = target: T2, Estrogen receptor (Rattus norvegicus); remark: listed apart in the source
Description: Effect on uterine weight in immature rats in combination with 17R-ethinyl-17-beta-estradiol after 3 days

Chain of Estrogen receptor beta (Q92731 whole entry): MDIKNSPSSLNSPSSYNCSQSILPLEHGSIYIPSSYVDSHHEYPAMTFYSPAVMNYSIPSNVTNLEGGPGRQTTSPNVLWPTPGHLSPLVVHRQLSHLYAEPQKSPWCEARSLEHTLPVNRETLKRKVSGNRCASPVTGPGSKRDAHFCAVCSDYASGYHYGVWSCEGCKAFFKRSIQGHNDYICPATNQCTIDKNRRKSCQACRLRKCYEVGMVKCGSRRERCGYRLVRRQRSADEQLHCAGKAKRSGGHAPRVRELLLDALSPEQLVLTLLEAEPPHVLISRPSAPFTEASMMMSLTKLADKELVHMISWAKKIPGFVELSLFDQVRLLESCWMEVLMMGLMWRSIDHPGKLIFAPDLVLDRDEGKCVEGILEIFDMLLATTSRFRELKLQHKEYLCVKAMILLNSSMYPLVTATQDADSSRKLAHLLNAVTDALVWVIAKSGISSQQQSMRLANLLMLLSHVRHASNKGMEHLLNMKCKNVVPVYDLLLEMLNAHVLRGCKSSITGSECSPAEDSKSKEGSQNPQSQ

IC50 (Estrogen receptor beta)	IC50 (Estrogen receptor)	Structure (SMILES)	other results
0.0012 µM	0.073 µM	C#Cc1cc(O)cc2ccc(-c3ccc(O)c(F)c3)cc12	
0.004 µM		Oc1ccc(-c2ccc3c(Cl)c(O)ccc3c2)cc1F	
0.0063 µM	0.247 µM	C#Cc1cc(-c2ccc(O)c(F)c2)cc2ccc(O)cc12	
0.0106 µM		Oc1ccc2cc(-c3cc(F)c(O)c(F)c3)ccc2c1Cl	
0.0056 µM	0.312 µM	N#Cc1cc(-c2ccc(O)c(F)c2)cc2ccc(O)c(F)c12	
0.0015 µM	0.021 µM	Oc1ccc2cc(-c3ccc(O)c(F)c3)cc(F)c2c1	
0.03 µM		Oc1cccc(-c2ccc3cc(O)ccc3c2)c1	
0.0016 µM	0.022 µM	Oc1ccc(-c2cc(F)c3cc(O)ccc3c2)cc1	
0.005 µM		Oc1ccc2cc(-c3ccc(O)c(F)c3)ccc2c1	
0.003 µM	0.098 µM	N#Cc1cc(O)c(Cl)c2ccc(-c3ccc(O)cc3)cc12	
0.0073 µM	0.527 µM	C=Cc1cc(O)cc2ccc(-c3ccc(O)c(F)c3)cc12	
0.0011 µM	0.073 µM	O=Cc1cc(O)cc2ccc(-c3ccc(O)c(F)c3)cc12	
	3.4 µM	Oc1ccc2ccc(-c3ccccc3)cc2c1	
0.199 µM	0.709 µM	O=[N+]([O-])c1c(O)ccc2cc(-c3ccc(O)cc3)ccc12	
0.011 µM	0.107 µM	Oc1ccc2cc(-c3ccc(O)c(Cl)c3)ccc2c1	
0.0044 µM	0.254 µM	C=Cc1cc(-c2ccc(O)c(F)c2)cc2ccc(O)cc12	
0.0022 µM	0.045 µM	N#Cc1cc(-c2c(F)cc(O)cc2F)cc2ccc(O)cc12	
0.0026 µM	0.055 µM	N#Cc1cc(O)c(Cl)c2ccc(-c3ccc(O)c(F)c3)cc12	
	0.04 µM	Cc1cc(O)ccc1-c1ccc2c(Cl)c(O)ccc2c1	
2 µM	> 5 µM	Oc1ccc2cc(-c3ccccc3O)ccc2c1	

IC50 (Estrogen receptor beta)	IC50 (Estrogen receptor)	Structure (SMILES)	other results
0.0014 µM		Oc1ccc(-c2ccc3cc(O)ccc3c2)c(Cl)c1	
0.002 µM	0.024 µM	Oc1ccc(-c2ccc3cc(O)ccc3c2)c(F)c1	
0.0028 µM	0.027 µM	Oc1ccc2cc(-c3cc(F)c(O)cc3F)ccc2c1	
0.006 µM	0.406 µM	Cc1c(O)cc(C#N)c2cc(-c3ccc(O)c(F)c3)ccc12	
0.0055 µM	0.18 µM	CC#Cc1cc(O)cc2ccc(-c3ccc(O)c(F)c3)cc12	
0.0021 µM	0.096 µM	N#Cc1cc(O)cc2ccc(-c3ccc(O)c(F)c3)cc12	
0.0163 µM	0.211 µM	Oc1ccc(-c2ccc3cc(O)ccc3c2)cc1	
0.566 µM	2.64 µM	Oc1cccc(-c2ccc3ccc(O)cc3c2)c1	
0.01 µM	0.343 µM	CC#Cc1cc(-c2ccc(O)c(F)c2)cc2ccc(O)cc12	
0.0034 µM	0.231 µM	O=Cc1cc(-c2ccc(O)c(F)c2)cc2ccc(O)cc12	
0.0023 µM	0.03 µM	Oc1ccc(-c2cc(Cl)c3cc(O)ccc3c2)cc1	
	0.638 µM	Oc1ccc(-c2ccc3ccccc3c2)cc1	
0.0011 µM	0.04 µM	Oc1ccc(-c2cc(F)c3c(Cl)c(O)ccc3c2)cc1	
0.374 µM	1.34 µM	Oc1ccc2cc(-c3ccccc3)ccc2c1	
0.0084 µM		Oc1ccc2cc(-c3cc(F)c(O)c(F)c3)ccc2c1	
0.0012 µM	0.058 µM	Oc1ccc(-c2ccc3c(Cl)c(O)ccc3c2)c(F)c1	
	0.174 µM	COc1cc(O)ccc1-c1ccc2cc(O)ccc2c1	
0.0034 µM	0.035 µM	Oc1cc(F)c(-c2ccc3c(Cl)c(O)ccc3c2)c(F)c1	
0.006 µM	0.109 µM	N#Cc1cc(-c2ccc(O)cc2)cc2ccc(O)c(Cl)c12	
0.0025 µM	0.113 µM	CCc1cc(O)cc2ccc(-c3ccc(O)c(F)c3)cc12	

IC50 (Estrogen receptor beta)	IC50 (Estrogen receptor)	Structure (SMILES)	other results
0.013 µM	0.266 µM	Oc1ccc(-c2ccc3c(Br)c(O)ccc3c2)cc1	
0.0058 µM		Oc1ccc(-c2ccc3c(O)cccc3c2)cc1	
0.012 µM	0.131 µM	N#Cc1cc(-c2ccc(O)cc2)cc2ccc(O)c(Br)c12	
0.0085 µM	0.118 µM	Oc1cc(F)c(-c2ccc3c(Cl)c(O)ccc3c2)cc1F	
0.01 µM	0.04 µM	Cc1cc(O)ccc1-c1ccc2cc(O)ccc2c1	
0.044 µM	0.442 µM	Oc1ccc(-c2ccc3ccc(O)cc3c2)cc1	
0.0069 µM	0.186 µM	N#Cc1cc(-c2cc(F)c(O)cc2F)cc2ccc(O)cc12	
		N#Cc1cc(-c2ccc(O)c(F)c2)cc2ccc(O)cc12	Activity (Rattus norvegicus [1]): 0.45 mg/mL; Activity (Rattus norvegicus [2]): 0.35 mg/mL; Weight [3]: 23.3 mg; Weight [4]: 81.9 mg
0.0033 µM	0.036 µM	Oc1ccc(-c2ccc3c(Cl)c(O)ccc3c2)c(Cl)c1	
0.0024 µM	0.235 µM	CCc1cc(-c2ccc(O)c(F)c2)cc2ccc(O)cc12	
0.028 µM	0.877 µM	N#Cc1cc(O)c(C#N)c2ccc(-c3ccc(O)c(F)c3)cc12	
0.0005 µM	0.026 µM	N#Cc1cc(-c2ccc(O)cc2F)cc2ccc(O)cc12	
0.0023 µM	0.0103 µM	Oc1cc(F)c(-c2ccc3cc(O)ccc3c2)c(F)c1	
0.748 µM	1.23 µM	Oc1ccc(-c2ccc3c(-c4ccccc4)c(O)ccc3c2)cc1	
0.0045 µM	0.116 µM	N#Cc1cc(O)c(Br)c2ccc(-c3ccc(O)c(F)c3)cc12	
0.002 µM	0.084 µM	N#Cc1cc(O)cc2ccc(-c3ccc(O)cc3)cc12	
0.205 µM	1.45 µM	Oc1cccc(-c2ccc3c(O)cccc3c2)c1	
0.009 µM	0.043 µM	Oc1ccc(-c2cc(Cl)c3c(Cl)c(O)ccc3c2)cc1	
0.007 µM	0.077 µM	Oc1ccc(-c2ccc3c(F)c(O)ccc3c2)cc1	

Structure (SMILES)	IC50 (Estrogen receptor beta)	IC50 (Estrogen receptor)	other results
Oc1ccc(-c2ccc3c(Cl)c(O)ccc3c2)cc1		0.091 µM	
